What was measured:
Format in all cases: in vitro ADME
CYP 2A6 = target: T1, CYP 2A6 (Homo sapiens, UniProt P11509); test: CYP inhibition, cocktail-substrate method in HLM; details: probe coumarin
T1 construct: 0.5 mg/mL HLM, 1 mmol/L NADPH, and a cocktail of 10 probe substrates for 9 CYP isoforms; tissue BD (Woburn, USA); host or cells: pooled human liver microsomes
T1 sequence (P11509 1-494): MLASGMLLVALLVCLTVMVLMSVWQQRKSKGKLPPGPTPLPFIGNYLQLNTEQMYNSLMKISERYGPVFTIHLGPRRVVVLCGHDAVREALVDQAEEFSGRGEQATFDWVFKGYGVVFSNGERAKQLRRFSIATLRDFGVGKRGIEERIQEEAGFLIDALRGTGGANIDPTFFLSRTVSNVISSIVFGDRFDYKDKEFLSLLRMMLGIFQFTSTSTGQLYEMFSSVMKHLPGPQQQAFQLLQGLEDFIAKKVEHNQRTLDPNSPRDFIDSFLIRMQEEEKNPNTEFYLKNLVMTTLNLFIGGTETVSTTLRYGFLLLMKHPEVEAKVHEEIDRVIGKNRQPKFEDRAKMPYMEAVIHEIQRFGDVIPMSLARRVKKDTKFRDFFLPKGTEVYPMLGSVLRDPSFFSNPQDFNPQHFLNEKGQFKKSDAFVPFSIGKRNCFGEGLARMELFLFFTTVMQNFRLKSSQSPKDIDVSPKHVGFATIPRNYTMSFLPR
Experimental: (§1) To assess the CYP inhibition profiling of ammoxetine, a high-throughput assay based on the cocktail-substrate method was performed, as described in the literature ([Kim et al., 2005]; [Kozakai et al., 2014]). Microsomal incubations were conducted in triplicate for 30 min at 37°C in a reaction system (200 μL) consisting of […] potassium phosphate buffer (pH 7.4), 0.5 mg/mL HLM, 1 mmol/L NADPH, and a cocktail of 10 probe substrates for 9 CYP isoforms. The final concentration of each CYP-specific substrate was chosen to be close to the Michaelis-Menten constant (K m ) value of the respective substrate ([Kim et al., 2005]; [Lee et al., 2024]). For instance, phenacetin (CYP 1A2) was used at a concentration of 50 μmol/L, coumarin (CYP 2A6) at 5 μmol/L, bupropion (CYP 2B6) at 50 μmol/L, amodiaquine (CYP 2C8) at 5 μmol/L, tolbutamide (CYP 2C9) at 100 μmol/L, S-mephenytoin (CYP 2C19) at 100 μmol/L, dextromethorphan (CYP 2D6) at 5 μmol/L, chlorzoxazone (CYP 2E1) at 50 μmol/L, and testosterone and midazolam (CYP 3A4) at 50 μmol/L. Ammoxetine was evaluated at five concentrations: 0.1, 1, 10, 50, and 100 μmol/L. Additionally, a blank control without ammoxetine was included. The incubation was terminated by adding an equal volume of ice-cold acetonitrile/methanol (1:1, v/v) along with the IS, dexmedetomidine (1 ng/mL). After a 20-fold dilution, the mixture was centrifuged at 13,800×g for 10 min at 4°C. The supernatants were used to measure the levels of metabolites from the respective probe substrates using an LC-MS-MS method. The half-maximal inhibitory concentration (IC50) values were subsequently calculated.

CYP 2E1 = target: T2, CYP 2E1 (Homo sapiens, UniProt P05181); test: CYP inhibition, cocktail-substrate method in HLM; details: probe chlorzoxazone
T2 construct: 0.5 mg/mL HLM, 1 mmol/L NADPH, and a cocktail of 10 probe substrates for 9 CYP isoforms; tissue BD (Woburn, USA); host or cells: pooled human liver microsomes
T2 sequence (P05181 whole entry, canonical isoform): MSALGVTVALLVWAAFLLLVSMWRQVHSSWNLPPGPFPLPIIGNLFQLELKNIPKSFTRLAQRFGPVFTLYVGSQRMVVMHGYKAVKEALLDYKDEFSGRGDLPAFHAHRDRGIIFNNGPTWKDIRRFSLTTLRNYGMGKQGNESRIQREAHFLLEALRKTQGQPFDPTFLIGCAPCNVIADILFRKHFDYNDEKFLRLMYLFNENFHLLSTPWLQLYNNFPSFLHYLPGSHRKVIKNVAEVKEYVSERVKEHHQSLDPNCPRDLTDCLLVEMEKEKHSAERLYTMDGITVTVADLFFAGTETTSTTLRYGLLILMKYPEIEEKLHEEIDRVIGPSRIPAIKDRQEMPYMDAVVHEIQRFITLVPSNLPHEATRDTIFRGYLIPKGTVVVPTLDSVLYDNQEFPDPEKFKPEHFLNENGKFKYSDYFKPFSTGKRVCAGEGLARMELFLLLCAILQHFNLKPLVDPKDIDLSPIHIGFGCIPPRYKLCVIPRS
Experimental: as §1

[1] = Stability of ammoxetine in dog plasma (method validation)
Experimental: LC-MS-MS methods were developed and validated to accurately quantify ammoxetine in rat and beagle dog plasma, as well as in rat tissues, urine, feces, and bile. The methods involved direct protein precipitation using methanol, providing a straightforward and rapid sample preparation process with high extraction recovery rates (absolute recoveries >85% in all matrices). […] The precision and accuracy of the plasma methods were evaluated through intra-day and inter-day analyses, yielding satisfactory results. Additionally, stability tests conducted in rat and beagle dog plasma met the analytical requirements for determination. Furthermore, the majority of the analytes met the necessary criteria for matrix effects when quantifying ammoxetine in biological samples. The developed methods are well-suited for determining ammoxetine concentrations in rat and beagle dog biological samples, enabling in vivo studies of this compound. They provide specific and highly sensitive quantification, facilitating investigations into the drug’s behavior in vivo. Detailed results regarding the establishment and validation of these analytical methods can be found in Supplementary Data Sheet 2.

CNCC[C@H](Oc1cccc2c1OCO2)c1cccs1 [ammoxetine]
IC50 (CYP 2A6): > 100 µM | IC50 (CYP 2E1): > 100 µM | Stability in dog plasma, Accuracy/% ([1]; 5 ng/mL, 0d (-30℃)): 91.60±7.22% | Stability in dog plasma, Accuracy/% ([1]; 5 ng/mL, 15d (-30℃)): 97.58±13.78% | Stability in dog plasma, Accuracy/% ([1]; 5 ng/mL, 25d (-30℃)): 97.61±9.77% | Stability in dog plasma, Accuracy/% ([1]; 5 ng/mL, in auto-sampler for 24h): 96.64±4.72% | Stability in dog plasma, Accuracy/% ([1]; 5 ng/mL, repeated freezing and thawing for 3 times): 96.59±4.01% | Stability in dog plasma, Accuracy/% ([1]; 5 ng/mL, room temperature for 4h): 99.00±11.24% | Stability in dog plasma, Accuracy/% ([1]; 100 ng/mL, 0d (-30℃)): 100.10 ±1.62% | Stability in dog plasma, Accuracy/% ([1]; 100 ng/mL, 15d (-30℃)): 98.63±4.19% | Stability in dog plasma, Accuracy/% ([1]; 100 ng/mL, 25d (-30℃)): 101.68 ±6.57% | Stability in dog plasma, Accuracy/% ([1]; 100 ng/mL, in auto-sampler for 24h): 99.51±7.50% | Stability in dog plasma, Accuracy/% ([1]; 100 ng/mL, repeated freezing and thawing for 3 times): 98.25±6.55% | Stability in dog plasma, Accuracy/% ([1]; 100 ng/mL, room temperature for 4h): 101.87 ±8.27% | Stability in dog plasma, Accuracy/% ([1]; 1200 ng/mL, 0d (-30℃)): 92.06±3.06% | Stability in dog plasma, Accuracy/% ([1]; 1200 ng/mL, 15d (-30℃)): 92.48±4.64% | Stability in dog plasma, Accuracy/% ([1]; 1200 ng/mL, 25d (-30℃)): 93.96±3.46% | Stability in dog plasma, Accuracy/% ([1]; 1200 ng/mL, in auto-sampler for 24h): 92.32±4.25% | Stability in dog plasma, Accuracy/% ([1]; 1200 ng/mL, repeated freezing and thawing for 3 times): 92.01±6.32% | Stability in dog plasma, Accuracy/% ([1]; 1200 ng/mL, room temperature for 4 h): 93.89±4.32%

Source: paper PMC11579541, “In vitro, in vivo, and in silico approaches for evaluating the preclinical DMPK profiles of ammoxetine, a novel chiral serotonin and norepinephrine reuptake inhibitor” (Frontiers in Pharmacology, 2024)
